Source: ChEMBL document CHEMBL3045273, “Synthesis, characterization, and pharmacological evaluation of 1-[2-(6-nitro-4-oxo-2-phenyl-4H-quinazolin-3-yl)-ethyl]-3-phenyl ureas” (2013)
Values after ≈ are worked out from the molar mass of the structure shown.

Columns and labels:
Candida albicans [1] = assay: Antifungal activity against Candida albicans ATCC 66027 assessed as initial concentration required for appearance of zone of inhibition after 24 hr; assay type: functional
Candida albicans [2] = assay: Antifungal activity against Candida albicans ATCC 66027 assessed as growth inhibition after 24 hr by serial broth dilution method; assay type: functional; conditions: ATCC 66027, 24 h
Escherichia coli [3] = assay: Antibacterial activity against Escherichia coli ATCC 25922 assessed as growth inhibition at 40 ug/ml after 24 hr by Kirby-Bauer disk diffusion method; assay type: functional; conditions: ATCC 25922, 24 h, read-out: DIZ
Candida albicans [4] = assay: Antifungal activity against Candida albicans ATCC 66027 assessed as growth inhibition at 300 ug/ml after 24 hr by Kirby-Bauer disk diffusion method; assay type: functional; conditions: ATCC 66027, 24 h, read-out: DIZ
Bacillus subtilis [5] = assay: Antibacterial activity against Bacillus subtilis ATCC 11774 assessed as growth inhibition at 300 ug/ml after 24 hr by Kirby-Bauer disk diffusion method; assay type: functional; conditions: ATCC 11774, 24 h, read-out: DIZ
Pseudomonas aeruginosa [6] = assay: Antibacterial activity against Pseudomonas aeruginosa ATCC 27853 assessed as growth inhibition at 300 ug/ml after 24 hr by Kirby-Bauer disk diffusion method; assay type: functional; conditions: ATCC 27853, 24 h, read-out: DIZ
Staphylococcus aureus [7] = assay: Antibacterial activity against Staphylococcus aureus ATCC 25923 assessed as growth inhibition at 300 ug/ml after 24 hr by Kirby-Bauer disk diffusion method; assay type: functional; conditions: ATCC 25923, 24 h, read-out: DIZ
Candida albicans [8] = assay: Antifungal activity against Candida albicans ATCC 66027 assessed as growth inhibition at 100 ug/ml after 24 hr by Kirby-Bauer disk diffusion method; assay type: functional; conditions: ATCC 66027, 24 h, read-out: DIZ
Bacillus subtilis [9] = assay: Antibacterial activity against Bacillus subtilis ATCC 11774 assessed as growth inhibition at 100 ug/ml after 24 hr by Kirby-Bauer disk diffusion method; assay type: functional; conditions: ATCC 11774, 24 h, read-out: DIZ
Staphylococcus aureus [10] = assay: Antibacterial activity against Staphylococcus aureus ATCC 25923 assessed as growth inhibition at 100 ug/ml after 24 hr by Kirby-Bauer disk diffusion method; assay type: functional; conditions: ATCC 25923, 24 h, read-out: DIZ
Pseudomonas aeruginosa [11] = assay: Antibacterial activity against Pseudomonas aeruginosa ATCC 27853 assessed as growth inhibition at 100 ug/ml after 24 hr by Kirby-Bauer disk diffusion method; assay type: functional; conditions: ATCC 27853, 24 h, read-out: DIZ
Bacillus subtilis [12] = assay: Antibacterial activity against Bacillus subtilis ATCC 11774 assessed as initial concentration required for appearance of zone of inhibition after 24 hr; assay type: functional
Staphylococcus aureus [13] = assay: Antibacterial activity against Staphylococcus aureus ATCC 25923 assessed as initial concentration required for appearance of zone of inhibition after 24 hr; assay type: functional
Pseudomonas aeruginosa [14] = assay: Antibacterial activity against Pseudomonas aeruginosa ATCC 27853 assessed as initial concentration required for appearance of zone of inhibition after 24 hr; assay type: functional
Escherichia coli [15] = assay: Antibacterial activity against Escherichia coli ATCC 25922 assessed as initial concentration required for appearance of zone of inhibition after 24 hr; assay type: functional
Bacillus subtilis [16] = assay: Antibacterial activity against Bacillus subtilis ATCC 11774 assessed as growth inhibition after 24 hr by serial broth dilution method; assay type: functional; conditions: ATCC 11774, 24 h
Pseudomonas aeruginosa [17] = assay: Antibacterial activity against Pseudomonas aeruginosa ATCC 27853 assessed as growth inhibition after 24 hr by serial broth dilution method; assay type: functional; conditions: ATCC 27853, 24 h
Staphylococcus aureus [18] = assay: Antibacterial activity against Staphylococcus aureus ATCC 25923 assessed as growth inhibition after 24 hr by serial broth dilution method; assay type: functional; conditions: ATCC 25923, 24 h
Escherichia coli [19] = assay: Antibacterial activity against Escherichia coli ATCC 25922 assessed as growth inhibition after 24 hr by serial broth dilution method; assay type: functional; conditions: ATCC 25922, 24 h
Escherichia coli [20] = assay: microbe, parasite or virus in culture; conditions: ATCC 25922, 24 h, read-out: DIZ
Description: Antibacterial activity against Escherichia coli ATCC 25922 assessed as growth inhibition at 300 ug/ml after 24 hr by Kirby-Bauer disk diffusion method

Escherichia coli [21] = assay: microbe, parasite or virus in culture; conditions: ATCC 25922, 24 h, read-out: DIZ; remark: listed apart in the source
Description: Antibacterial activity against Escherichia coli ATCC 25922 assessed as growth inhibition at 100 ug/ml after 24 hr by Kirby-Bauer disk diffusion method

Compound | Activity (Candida albicans [1]) | MIC (Candida albicans [2]) | zone of inhibition at 40 µg/mL (Escherichia coli [3]) | zone of inhibition at 300 µg/mL (Candida albicans [4]) | zone of inhibition at 300 µg/mL (Bacillus subtilis [5]) | zone of inhibition at 300 µg/mL (Pseudomonas aeruginosa [6]) | zone of inhibition at 300 µg/mL (Staphylococcus aureus [7]) | zone of inhibition at 100 µg/mL (Candida albicans [8]) | zone of inhibition at 100 µg/mL (Bacillus subtilis [9]) | zone of inhibition at 100 µg/mL (Pseudomonas aeruginosa [11]) | Activity (Bacillus subtilis [12]) | Activity (Staphylococcus aureus [13]) | Activity (Pseudomonas aeruginosa [14]) | Activity (Escherichia coli [15]) | MIC (Bacillus subtilis [16]) | MIC (Pseudomonas aeruginosa [17]) | MIC (Staphylococcus aureus [18]) | MIC (Escherichia coli [19]) | zone of inhibition at 300 µg/mL (Escherichia coli [20]) | zone of inhibition at 100 µg/mL (Escherichia coli [21]) | also measured
OC(Cn1cncn1)(Cn1cncn1)c1ccc(F)cc1F [FLUCONAZOLE] | 10 µg/mL | 5 µg/mL (≈ 16.3 µM) | – | – | – | – | – | – | – | – | – | – | – | – | – | – | – | – | – | – | –
Cc1ccc(NC(=O)NCCn2c(-c3ccccc3)nc3ccc([N+](=O)[O-])cc3c2=O)cc1 | 20 µg/mL | 20 µg/mL (≈ 45.1 µM) | 11 mm | 17 mm | 15 mm | 17 mm | 14 mm | 14 mm | 12 mm | 12 mm | 70 µg/mL | 70 µg/mL | 70 µg/mL | 40 µg/mL | 70 µg/mL (≈ 158 µM) | 70 µg/mL (≈ 158 µM) | 70 µg/mL (≈ 158 µM) | 40 µg/mL (≈ 90.2 µM) | 17 mm | 14 mm | zone of inhibition at 100 µg/mL (Staphylococcus aureus [10]): 12 mm
O=C(NCCn1c(-c2ccccc2)nc2ccc([N+](=O)[O-])cc2c1=O)NC1CCCCC1 | 20 µg/mL | 20 µg/mL (≈ 45.9 µM) | – | 21 mm | 13 mm | 17 mm | 12 mm | 13 mm | – | 12 mm | 200 µg/mL | 200 µg/mL | 70 µg/mL | 70 µg/mL | 100 µg/mL (≈ 230 µM) | 70 µg/mL (≈ 161 µM) | 200 µg/mL (≈ 459 µM) | 70 µg/mL (≈ 161 µM) | 18 mm | 13 mm | –
CSc1ccc(NC(=O)NCCn2c(-c3ccccc3)nc3ccc([N+](=O)[O-])cc3c2=O)cc1 | 20 µg/mL | 20 µg/mL (≈ 42.1 µM) | 11 mm | 20 mm | 16 mm | 19 mm | 12 mm | 15 mm | 12 mm | 12 mm | 70 µg/mL | 200 µg/mL | 70 µg/mL | 40 µg/mL | 70 µg/mL (≈ 147 µM) | 70 µg/mL (≈ 147 µM) | 200 µg/mL (≈ 421 µM) | 40 µg/mL (≈ 84.1 µM) | 18 mm | 14 mm | –
O=C(NCCn1c(-c2ccccc2)nc2ccc([N+](=O)[O-])cc2c1=O)Nc1ccc(Cl)cc1 | 40 µg/mL | 40 µg/mL (≈ 86.2 µM) | – | 21 mm | 16 mm | 16 mm | 12 mm | 15 mm | 12 mm | 11 mm | 70 µg/mL | 200 µg/mL | 100 µg/mL | 70 µg/mL | 70 µg/mL (≈ 151 µM) | 40 µg/mL (≈ 86.2 µM) | 200 µg/mL (≈ 431 µM) | 40 µg/mL (≈ 86.2 µM) | 14 mm | 12 mm | –
